Source: PubChem BioAssay AID2060356 (Molecular Pharmacology Branch, DTP, NCI, 2025)
Several values for one entry are separate records, joined by “and”; a condition that tells them apart may be missing. Identical values can stand only once.

Test system: PDC tumor spheroids with HUVEC/MSC, viability
Assay: Anticancer human tumor 439559-082-T-J2-PDC patient-derived colon adenocarcinoma cell line growth inhibition [TAK]
Details: for viability, T/C: stronger effect = lower value
Text: Combinatorial screen of targeted agents with TAK-243 and ipatasertib in multi-cell type tumor spheroids
A high-throughput screen of multi-cell type tumor spheroids was designed to identify active combinations of targeted small molecules and TAK-243 or ipatasertib. Complex spheroids include a stromal component modeled by human endothelial cells (HUVEC) and fibroblasts modeled by human mesenchymal stem cells (MSCs). The concentration ranges selected for each drug and investigational agent were based upon clinically achievable concentrations if the clinical Cmax of the agent was known.
Compounds. The drugs and investigational agents: TAK-243 (785004), ipatasertib (767898), everolimus (733504), selumetinib (741078), bortezomib (756655), trametinib (758246), ixazomib (758254), vemurafenib (761431), dabrafenib (764134), sapanisertib (764658), alpelisib (765974), and copanlisib (816437), were obtained from the National Cancer Institute (NCI) Developmental Therapeutics Program Chemical Repository. The FDA-approved anticancer drug set is available from the NCI Developmental Therapeutics Program. […] The stock solutions were prepared in dimethyl sulfoxide (DMSO, Sigma-Aldrich, St. Louis, MO, cat. D2650) at 800-fold the tested concentration and stored at -70 degrees C prior to their use. All drugs and investigational agents were tested over a range starting from a high concentration at or near the clinical Cmax and decreasing in half-log increments. If the clinical Cmax for an agent had not been determined, the highest concentration tested was 10 microM.
NCI60 Cell Culture. NCI60 cell lines were obtained from the NCI Developmental Therapeutics Program Tumor Repository. For each lot of cells, the Repository performed Applied Biosystems AmpFLSTR Identifiler testing with PCR amplification to confirm consistency with the published Identifier STR profile for each cell line. Cells were kept in continuous culture for no more than 20 passages. The optimal seeding densities for each of the cell lines at each time point assessed were determined prior to performing the concentration response studies. Briefly, the NCI60 human tumor lines were grown as monolayers in RPMI 1640 medium supplemented with 10% FBS and 2 mmol/L L-glutamine.
An additional 2 lines were from the NCI60 cell line panel including melanomas, MALME-3M and SK-MEL-2. Pooled donor human umbilical vein endothelial cells (HUVEC, Lonza, cat. CC-2519) and human mesenchymal stem cells (hMSC, Lonza, cat. PT-2501) were purchased from Lonza (Walkersville, MD).
PDMR cell lines were grown in complete medium (DC medium): Dulbecco's modified Eagle's medium (DMEM)/F12 supplemented with 5% fetal bovine serum (FBS), 2 mM L-glutamine, 100 U/mL penicillin and 100 µg/ml streptomycin, 0.4 µg/ml hydrocortisone, 10 ng/ml epidermal growth factor (EGF) recombinant human protein, 24 µg/mL adenine, and 0.1 mg/mL primocin. During culture from frozen stock vials, PDMR cells were cultured in the same medium containing 10 µM Y-27632 (see Table 3). The PDCs were cultured in complete DMEM/F12 media without 10 microM Y-27632 dihydrochloride for at least two passages prior to the screen. The pooled donor HUVEC and hMSC were cultured in endothelial cell growth medium 2 (PromoCell, Heidelberg, Germany, cat. C-22011) and mesenchymal stem cell growth medium 2 (PromoCell, cat. C-28009), respectively. For all experiments, HUVEC and hMSC were used at passages </=5.
For the pre-screen, cell seeding densities were determined from a titration spanning the range from 5,000 to 313 cells per well. The mct-spheroids including 60% malignant cells, 25% HUVEC and 15% MSC dispensed as a mixture into U-bottom Ultra-Low Attachment 384-well plates (Corning, NY)
High-throughput Drug Combination Screening.
Prior to their inoculation into 384-well plates, malignant cells, HUVEC, and hMSC were removed from T flasks using TrypLE express (Thermo Fisher Scientific, cat. 12605036) and harvested by centrifugation for 5 min at 233 x g. […]

[1] = curve of first compound, second compound 0.3 µM
[2] = curve of first compound, second compound 0.949 µM
[3] = curve of first compound, second compound 3 µM
[4] = curve of first compound, second compound 9.49 µM
[5] = curve of first compound, second compound 30 µM
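Note: spheroids exposed to drugs for seven days before readout.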

Compound: CC(C)CC(NC(=O)C(Cc1ccccc1)NC(=O)c1cnccn1)B(O)O (centres undefined)
- viability, T/C (compound 31.6 pM): 111% and 105%
- viability, T/C (compound 0.0001 µM): 104% and 98.9%
- viability, T/C (compound 0.000316 µM): 102% and 98.8%
- viability, T/C (compound 0.001 µM): 103% and 101%
- viability, T/C (compound 0.00316 µM): 100% and 97.5%
- viability, T/C (compound 0.01 µM): 66.4% and 69.6%
- IC50 (curve of compound): > 0.01 µM

Compound: CC(=O)Nc1cccc(-n2c(=O)n(C3CC3)c(=O)c3c(Nc4ccc(I)cc4F)n(C)c(=O)c(C)c32)c1
- viability, T/C (compound 94.9 pM): 105% and 111%
- viability, T/C (compound 0.0003 µM): 101% and 94.9%
- viability, T/C (compound 0.000949 µM): 91% and 88.8%
- viability, T/C (compound 0.003 µM): 73.6% and 75.2%
- viability, T/C (compound 0.00949 µM): 72.6% and 75.3%
- viability, T/C (compound 0.03 µM): 63.9% and 60.4%
- IC50 (curve of compound): > 0.03 µM

Compound: CC(C)n1nc(-c2ccc3oc(N)nc3c2)c2c(N)ncnc21
- viability, T/C (compound 0.000316 µM): 106% and 115%
- viability, T/C (compound 0.001 µM): 99.2% and 110%
- viability, T/C (compound 0.00316 µM): 97.8% and 105%
- viability, T/C (compound 0.01 µM): 83.5% and 85.3%
- viability, T/C (compound 0.0316 µM): 76% and 76.8%
- viability, T/C (compound 0.1 µM): 69.8% and 74.7%
- IC50 (curve of compound): > 0.1 µM

Compound: CCCS(=O)(=O)Nc1ccc(F)c(C(=O)c2c[nH]c3ncc(-c4ccc(Cl)cc4)cc23)c1F + CC(C)NCC(C(=O)N1CCN(c2ncnc3c2C(C)CC3O)CC1)c1ccc(Cl)cc1
- IC50 [1]: > 100 µM
- IC50 [2]: > 100 µM
- IC50 [3]: > 100 µM
- IC50 [4]: > 100 µM
- IC50 [5]: 24.8 µM
- viability, T/C (second compound 0.3 µM, first compound 0.316 µM): 117%
- viability, T/C (second compound 0.3 µM, first compound 1 µM): 103%
- viability, T/C (second compound 0.3 µM, first compound 3.16 µM): 100%
- viability, T/C (second compound 0.3 µM, first compound 10 µM): 91.5%
- viability, T/C (second compound 0.3 µM, first compound 31.6 µM): 93.4%
- viability, T/C (second compound 0.3 µM, first compound 100 µM): 106%
- viability, T/C (second compound 0.949 µM, first compound 0.316 µM): 122%
- viability, T/C (second compound 0.949 µM, first compound 1 µM): 99.1%
- viability, T/C (second compound 0.949 µM, first compound 3.16 µM): 94.6%
- viability, T/C (second compound 0.949 µM, first compound 10 µM): 86.2%
- viability, T/C (second compound 0.949 µM, first compound 31.6 µM): 21.8%
- viability, T/C (second compound 0.949 µM, first compound 100 µM): 100%
- viability, T/C (second compound 3 µM, first compound 0.316 µM): 108%
- viability, T/C (second compound 3 µM, first compound 1 µM): 107%
- viability, T/C (second compound 3 µM, first compound 3.16 µM): 88.3%
- viability, T/C (second compound 3 µM, first compound 10 µM): 76%
- viability, T/C (second compound 3 µM, first compound 31.6 µM): 51.6%
- viability, T/C (second compound 3 µM, first compound 100 µM): 94.6%
- viability, T/C (second compound 9.49 µM, first compound 0.316 µM): 96.6%
- viability, T/C (second compound 9.49 µM, first compound 1 µM): 101%
- viability, T/C (second compound 9.49 µM, first compound 3.16 µM): 80.1%
- viability, T/C (second compound 9.49 µM, first compound 10 µM): 72.5%
- viability, T/C (second compound 9.49 µM, first compound 31.6 µM): 8.73%
- viability, T/C (second compound 9.49 µM, first compound 100 µM): 88.5%
- viability, T/C (second compound 30 µM, first compound 0.316 µM): 87.9%
- viability, T/C (second compound 30 µM, first compound 1 µM): 94.6%
- viability, T/C (second compound 30 µM, first compound 3.16 µM): 84.8%
- viability, T/C (second compound 30 µM, first compound 10 µM): 71.7%
- viability, T/C (second compound 30 µM, first compound 31.6 µM): 1.55%
- viability, T/C (second compound 30 µM, first compound 100 µM): 86.9%

Compound: Cc1nc(NC(=O)N2CCCC2C(N)=O)sc1-c1ccnc(C(C)(C)C(F)(F)F)c1 (centres undefined)
- viability, T/C (compound 0.0316 µM): 108% and 109%
- viability, T/C (compound 0.1 µM): 105% and 106%
- viability, T/C (compound 0.316 µM): 88.8% and 87%
- viability, T/C (compound 1 µM): 90.8% and 87.5%
- viability, T/C (compound 3.16 µM): 90% and 80.8%
- viability, T/C (compound 10 µM): 82.5% and 78.5%
- IC50 (curve of compound): > 10 µM

Compound: COC1CC2CCC(C)C(O)(O2)C(=O)C(=O)N2CCCCC2C(=O)OC(C(C)CC2CCC(OCCO)C(OC)C2)CC(=O)C(C)C=C(C)C(O)C(OC)C(=O)C(C)CC(C)C=CC=CC=C1C (centres undefined) + CC(C)NCC(C(=O)N1CCN(c2ncnc3c2C(C)CC3O)CC1)c1ccc(Cl)cc1
- IC50 [1]: > 0.1 µM
- IC50 [2]: > 0.1 µM
- IC50 [3]: > 0.1 µM
- IC50 [4]: > 0.1 µM
- IC50 [5]: > 0.1 µM
- viability, T/C (second compound 0.3 µM, first compound 0.000316 µM): 110%
- viability, T/C (second compound 0.3 µM, first compound 0.001 µM): 97.1%
- viability, T/C (second compound 0.3 µM, first compound 0.00316 µM): 81.7%
- viability, T/C (second compound 0.3 µM, first compound 0.01 µM): 90.4%
- viability, T/C (second compound 0.3 µM, first compound 0.0316 µM): 83.7%
- viability, T/C (second compound 0.3 µM, first compound 0.1 µM): 82%
- viability, T/C (second compound 0.949 µM, first compound 0.000316 µM): 103%
- viability, T/C (second compound 0.949 µM, first compound 0.001 µM): 88.6%
- viability, T/C (second compound 0.949 µM, first compound 0.00316 µM): 85.9%
- viability, T/C (second compound 0.949 µM, first compound 0.01 µM): 87.4%
- viability, T/C (second compound 0.949 µM, first compound 0.0316 µM): 87.4%
- viability, T/C (second compound 0.949 µM, first compound 0.1 µM): 79.8%
- viability, T/C (second compound 3 µM, first compound 0.000316 µM): 97.4%
- viability, T/C (second compound 3 µM, first compound 0.001 µM): 101%
- viability, T/C (second compound 3 µM, first compound 0.00316 µM): 87.6%
- viability, T/C (second compound 3 µM, first compound 0.01 µM): 77.9%
- viability, T/C (second compound 3 µM, first compound 0.0316 µM): 81.5%
- viability, T/C (second compound 3 µM, first compound 0.1 µM): 77.3%
- viability, T/C (second compound 9.49 µM, first compound 0.000316 µM): 91.4%
- viability, T/C (second compound 9.49 µM, first compound 0.001 µM): 88.6%
- viability, T/C (second compound 9.49 µM, first compound 0.00316 µM): 81.3%
- viability, T/C (second compound 9.49 µM, first compound 0.01 µM): 73.7%
- viability, T/C (second compound 9.49 µM, first compound 0.0316 µM): 75.2%
- viability, T/C (second compound 9.49 µM, first compound 0.1 µM): 76.8%
- viability, T/C (second compound 30 µM, first compound 0.000316 µM): 93.1%
- viability, T/C (second compound 30 µM, first compound 0.001 µM): 91.2%
- viability, T/C (second compound 30 µM, first compound 0.00316 µM): 82.8%
- viability, T/C (second compound 30 µM, first compound 0.01 µM): 77.7%
- viability, T/C (second compound 30 µM, first compound 0.0316 µM): 79.1%
- viability, T/C (second compound 30 µM, first compound 0.1 µM): 72.7%

Compound: CC(C)NCC(C(=O)N1CCN(c2ncnc3c2C(C)CC3O)CC1)c1ccc(Cl)cc1 (centres undefined)
- viability, T/C (compound 0.3 µM): 101% [middle of 10 runs]
- viability, T/C (compound 0.949 µM): 94% [middle of 10 runs]
- viability, T/C (compound 3 µM): 83.6% [middle of 10 runs]
- viability, T/C (compound 9.49 µM): 80.9% [middle of 10 runs]
- viability, T/C (compound 30 µM): 85.8% [middle of 10 runs]
- IC50 (compound alone, run of 02/28/2020): > 30 µM
